{
  "source": "paper PMC12553813",
  "about": "“Converting Escherichia coli isochorismatase YecD into γ-lactamase” (Bioresources and Bioprocessing, 2025)",
  "type_in_all_cases": "biochemical",
  "key": {"YecD [1]": {"target": "YecD (Escherichia coli, UniProt P0ADI7, W104Y/G134C, form not given)", "sequence (P0ADI7 whole entry W104Y/G134C, form open)": "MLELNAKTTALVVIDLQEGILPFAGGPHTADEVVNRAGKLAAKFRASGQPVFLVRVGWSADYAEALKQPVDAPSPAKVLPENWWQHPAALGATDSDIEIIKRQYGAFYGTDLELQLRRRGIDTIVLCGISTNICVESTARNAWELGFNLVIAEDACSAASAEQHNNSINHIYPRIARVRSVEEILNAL", "experiment": "hydrolysis kinetics, chiral HPLC", "settings": "standard assay: 50 mM Tris-HCl pH 8.0, 35 °C, racemic γ-lactam"}, "YecD [2]": {"target": "YecD (Escherichia coli, UniProt P0ADI7, F23A/G134C, form not given)", "sequence (P0ADI7 whole entry F23A/G134C, form open)": "as the sequence (P0ADI7 whole entry W104Y/G134C, form open) above, with F23A, Y104W counted along it", "experiment": "hydrolysis kinetics, chiral HPLC", "settings": "standard assay: 50 mM Tris-HCl pH 8.0, 35 °C, racemic γ-lactam"}, "YecD [3]": {"target": "YecD (Escherichia coli, UniProt P0ADI7, W104A/G134C, form not given)", "sequence (P0ADI7 whole entry W104A/G134C, form open)": "as the sequence (P0ADI7 whole entry W104Y/G134C, form open) above, with Y104A counted along it", "experiment": "hydrolysis kinetics, chiral HPLC", "settings": "standard assay: 50 mM Tris-HCl pH 8.0, 35 °C, racemic γ-lactam"}, "YecD [4]": {"target": "YecD (Escherichia coli, UniProt P0ADI7, V56A/G134C, form not given)", "sequence (P0ADI7 whole entry V56A/G134C, form open)": "as the sequence (P0ADI7 whole entry W104Y/G134C, form open) above, with V56A, Y104W counted along it", "experiment": "hydrolysis kinetics, chiral HPLC", "settings": "standard assay: 50 mM Tris-HCl pH 8.0, 35 °C, racemic γ-lactam"}, "YecD [5]": {"target": "YecD (Escherichia coli, UniProt P0ADI7, W104F/G134C, form not given)", "sequence (P0ADI7 whole entry W104F/G134C, form open)": "as the sequence (P0ADI7 whole entry W104Y/G134C, form open) above, with Y104F counted along it", "experiment": "hydrolysis kinetics, chiral HPLC", "settings": "standard assay: 50 mM Tris-HCl pH 8.0, 35 °C, racemic γ-lactam"}, "YecD [6]": {"target": "YecD (Escherichia coli, UniProt P0ADI7, G134C, form not given)", "sequence (P0ADI7 whole entry G134C, form open)": "as the sequence (P0ADI7 whole entry W104Y/G134C, form open) above, with Y104W counted along it", "experiment": "hydrolysis kinetics, chiral HPLC", "settings": "standard assay: 50 mM Tris-HCl pH 8.0, 35 °C, racemic γ-lactam"}, "YecD [7]": {"target": "YecD (Escherichia coli, UniProt P0ADI7, V56I/W104E/G134C, form not given)", "sequence (P0ADI7 whole entry V56I/W104E/G134C, form open)": "as the sequence (P0ADI7 whole entry W104Y/G134C, form open) above, with V56I, Y104E counted along it", "experiment": "hydrolysis kinetics, chiral HPLC", "settings": "standard assay: 50 mM Tris-HCl pH 8.0, 35 °C, racemic γ-lactam"}, "RutB": {"target": "T1, RutB (Escherichia coli, UniProt P75897)", "T1 sequence (P75897 1-230)": "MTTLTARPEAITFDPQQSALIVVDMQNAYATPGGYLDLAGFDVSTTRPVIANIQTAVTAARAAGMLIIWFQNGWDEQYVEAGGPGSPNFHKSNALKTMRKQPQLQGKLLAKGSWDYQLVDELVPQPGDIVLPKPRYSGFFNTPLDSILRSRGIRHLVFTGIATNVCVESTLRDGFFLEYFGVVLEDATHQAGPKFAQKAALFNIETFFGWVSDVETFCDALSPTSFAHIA", "experiment": "γ-lactamase activity screen, chiral HPLC", "settings": "50 mM Tris-HCl pH 8.0, 35 °C, 4.6 mM racemic γ-lactam"}},
  "data": [
    {"compound": "O=C1N[C@@H]2C=C[C@H]1C2", "note": "(racemic) [( +) γ-lactam, 2-azabicyclo [2.2.1] hept-5-en-3-one]", "values": [
      {"measurement": "Km", "setting": "YecD [1]", "result": "36 ± 3", "unit": "mM"},
      {"measurement": "Km", "setting": "YecD [2]", "result": "67 ± 4", "unit": "mM"},
      {"measurement": "Km", "setting": "YecD [3]", "result": "79 ± 3", "unit": "mM"},
      {"measurement": "Km", "setting": "YecD [4]", "result": "70 ± 3", "unit": "mM"},
      {"measurement": "Km", "setting": "YecD [5]", "result": "74 ± 3", "unit": "mM"},
      {"measurement": "Km", "setting": "YecD [6]", "result": "72 ± 4", "unit": "mM"},
      {"measurement": "Km", "setting": "YecD [7]", "result": "16 ± 2", "unit": "mM"},
      {"measurement": "γ-lactamase activity screen, chiral HPLC", "setting": "RutB", "result": "Screening for ( +) γ-lactamase activity revealed that only RutB exhibited this catalytic function"}
    ]}
  ]
}
